What all share (format): biochemical
The target in assay [1] is T1, TACE (Homo sapiens, UniProt P78536).
T1 construct: made in house; host or cells: mammalian cells or insect cells
The experiment in a line: TACE inhibition experiment (in vitro).

For assay [2], the target named is T2, Human MMP1 (Homo sapiens, UniProt P03956).
T2 construct: purchased Calbiochem 444208
T2 sequence (P03956 100-469): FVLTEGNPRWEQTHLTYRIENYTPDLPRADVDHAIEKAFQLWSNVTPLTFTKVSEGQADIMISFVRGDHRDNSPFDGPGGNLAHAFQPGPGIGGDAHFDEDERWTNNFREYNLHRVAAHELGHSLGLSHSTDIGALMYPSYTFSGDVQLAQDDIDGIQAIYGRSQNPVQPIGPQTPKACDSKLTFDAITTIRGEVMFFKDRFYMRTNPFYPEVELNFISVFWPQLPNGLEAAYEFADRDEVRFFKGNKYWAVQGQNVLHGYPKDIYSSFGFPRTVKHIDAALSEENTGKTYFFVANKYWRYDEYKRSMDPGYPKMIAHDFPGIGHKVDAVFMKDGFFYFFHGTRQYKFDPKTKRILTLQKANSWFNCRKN
The experiment in a line: MMP1 inhibition experiment. The settings on record: read-out: IC50 value MMP-1.
Description: This enzyme solution in amount of 10 μL was diluted to 90 μL with the assay buffer A, which was added to 90 μL of 20 μM fluorescent substrate (Dnp-Pro-Cha(β-cyclohexylalanyl)-Gly-Cys(Me)-His-Ala-Lys(Nma)-NH2) prepared in the assay buffer B, followed by reaction for 5 hours at 37° C.

Assay [3] concerns the target T3, Human MMP2 (Homo sapiens, UniProt P08253).
T3 construct: purchased Calbiochem 444213
T3 sequence (P08253 110-660): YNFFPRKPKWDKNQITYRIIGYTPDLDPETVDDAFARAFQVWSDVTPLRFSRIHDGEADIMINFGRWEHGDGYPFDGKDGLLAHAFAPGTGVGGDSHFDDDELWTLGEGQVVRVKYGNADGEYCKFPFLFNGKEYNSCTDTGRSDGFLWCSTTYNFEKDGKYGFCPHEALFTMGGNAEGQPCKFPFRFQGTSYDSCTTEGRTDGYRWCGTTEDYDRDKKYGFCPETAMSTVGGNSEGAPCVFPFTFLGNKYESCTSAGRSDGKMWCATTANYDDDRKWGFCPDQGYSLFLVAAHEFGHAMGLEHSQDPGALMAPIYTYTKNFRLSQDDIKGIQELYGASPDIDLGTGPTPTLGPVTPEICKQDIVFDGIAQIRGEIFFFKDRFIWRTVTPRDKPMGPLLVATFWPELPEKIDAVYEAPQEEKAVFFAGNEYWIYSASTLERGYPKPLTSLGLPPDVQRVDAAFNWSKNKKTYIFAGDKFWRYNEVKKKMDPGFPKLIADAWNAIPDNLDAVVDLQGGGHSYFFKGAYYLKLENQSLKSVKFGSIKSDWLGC
As to the kind of experiment: MMP2 inhibition experiment. To be noted: concentration required for 50% inhibition of enzyme activity; read-out: IC50 value MMP-2.
Description: This enzyme solution in amount of 10 μL was diluted to 90 μL with the assay buffer A, which was added to 90 μL of 20 μM fluorescent substrate (MOCAc((7-methoxycoumarin-4-yl)acetyl)-Pro-Leu-Gly-Leu-A2pr(Dnp)-Ala-Arg-NH2, Peptide Institute, Inc., #3163-v) prepared in the assay buffer B, followed by reaction for 5 hours at 37° C.

Assay [4] deals with T4, Human MMP3 (Homo sapiens, UniProt P08254).
T4 construct: purchased Calbiochem 444217
As to the kind of experiment: MMP3 inhibition experiment. To be noted: concentration required for 50% inhibition of enzyme activity; read-out: IC50 value MMP-3. In short, it runs like this: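 Recombinant human MMP3 (5 ng) mixed with fluorogenic peptide NFF-3 (20 μM stock solution) and incubated 5 hours at 37° C; cleavage followed by fluorescence of the quenched substrate.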

The target of assay [5] is T5, Human MMP8 (Homo sapiens, UniProt P22894).
T5 construct: purchased Calbiochem 444229
The experiment in a line: MMP8 inhibition experiment. The settings on record: concentration required for 50% inhibition of enzyme activity; read-out: IC50 value MMP-8. The protocol: MMP inhibition experiment may be carried out using a fluorescent synthetic substrate according to, for example, the methods of Bickett et al. (D. Mark Bickett et al., Anal. Biochem., 1993, 212, 58-64) and Nagase et al. (H. Nagase et al., J. Biol. Chem., 1994, 269, 20952-20957). The methods of inhibition experiments carried out for various MMPs are described below.
Human MMP8 (Calbiochem #444229) in amount of 90 μL (30 ng) was activated by mixing with 10 μL of 10 mM APMA, followed by reaction for 1 hour at 37° C. This enzyme solution in amount of 10 μL was diluted to 90 μL with the assay buffer A, which was added to 90 μL of […] fluorescent substrate (MOCAc-Pro-Leu-Gly-Leu-A2pr(Dnp)-Ala-Arg-NH2, Peptide Institute, Inc., #3163-v) prepared in the assay buffer B, followed by reaction for 5 hours at 37° C.

Assay [6] deals with T6, Human MMP9 (Homo sapiens, UniProt P14780).
T6 construct: purchased Calbiochem 444231
As to the kind of experiment: MMP9 inhibition experiment. To be noted: read-out: IC50 value MMP-9.
Description: This enzyme solution in amount of 1 μL was diluted to 90 μL with the assay buffer A, which was added to 90 μL of 20 μM fluorescent substrate (Dnp-Pro-Cha-Gly-Cys(Me)-His-Ala-Lys(Nma)-NH2) prepared in the assay buffer B, followed by reaction for 4 hours at 37° C.

In assay [7] the target is T7, Human MMP13 (Homo sapiens, UniProt P45452).
T7 construct: purchased Chemicon CC068
The experiment in a line: MMP13 inhibition experiment. The settings on record: concentration required for 50% inhibition of enzyme activity; read-out: IC50 value MMP-13.
Description: Human MMP13 (Chemicon #CC068) in amount of 90 μL (200 ng) was activated by mixing with 10 μL of 10 mM APMA, followed by reaction for 1 hour at 37° C. This enzyme solution in amount of 0.6 μL was diluted to 90 μL with the assay buffer A, which was added to 90 μL of 20 μM fluorescent substrate (Dnp-Pro-Cha-Gly-Cys(Me)-His-Ala-Lys(Nma)-NH2) prepared in the assay buffer B, followed by reaction for 4 hours at 37° C.

Assay [8] addresses T8, Human MMP14 (Homo sapiens, UniProt P50281).
T8 construct: purchased Biogenesis or Calbiochem 5980-1461 or 475935
As to the kind of experiment: MMP14 inhibition experiment. To be noted: concentration required for 50% inhibition of enzyme activity; read-out: IC50 value MMP-14. In short, it runs like this: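 Fluorescence assay: substrate Dnp-Pro-Cha-Gly-Cys(Me)-His-Ala-Lys(Nma)-NH2 (20 μM before equal-volume mixing) incubated at 37° C for 5 hours with 4 ng human MMP14.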

In assay [9] the target is T9, Human MMP17 (Homo sapiens, UniProt Q9ULZ9).
T9 construct: purchased Calbiochem 475940
T9 sequence (Q9ULZ9 126-300 limits assumed): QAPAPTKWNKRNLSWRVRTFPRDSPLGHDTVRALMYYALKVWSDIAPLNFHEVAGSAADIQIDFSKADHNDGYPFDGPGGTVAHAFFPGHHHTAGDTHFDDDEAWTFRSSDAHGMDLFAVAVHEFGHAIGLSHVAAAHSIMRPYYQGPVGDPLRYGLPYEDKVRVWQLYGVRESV
As to the kind of experiment: MMP17 inhibition test. The settings on record: concentration required for 50% inhibition of enzyme activity; read-out: IC50 value MMP-17.

Setting [10] is: concentration required for 50% inhibition of enzyme activity.

SMILES strings stand for the structures. Where two headings read alike, the source gives them in different places.

T4 sequence (P08254 100-272 limits assumed): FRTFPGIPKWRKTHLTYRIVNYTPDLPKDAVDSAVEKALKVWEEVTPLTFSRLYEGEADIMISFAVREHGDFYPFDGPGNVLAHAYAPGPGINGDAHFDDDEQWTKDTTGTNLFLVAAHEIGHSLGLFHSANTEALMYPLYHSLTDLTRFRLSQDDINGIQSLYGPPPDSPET
T6 sequence (P14780 107-707 limits assumed): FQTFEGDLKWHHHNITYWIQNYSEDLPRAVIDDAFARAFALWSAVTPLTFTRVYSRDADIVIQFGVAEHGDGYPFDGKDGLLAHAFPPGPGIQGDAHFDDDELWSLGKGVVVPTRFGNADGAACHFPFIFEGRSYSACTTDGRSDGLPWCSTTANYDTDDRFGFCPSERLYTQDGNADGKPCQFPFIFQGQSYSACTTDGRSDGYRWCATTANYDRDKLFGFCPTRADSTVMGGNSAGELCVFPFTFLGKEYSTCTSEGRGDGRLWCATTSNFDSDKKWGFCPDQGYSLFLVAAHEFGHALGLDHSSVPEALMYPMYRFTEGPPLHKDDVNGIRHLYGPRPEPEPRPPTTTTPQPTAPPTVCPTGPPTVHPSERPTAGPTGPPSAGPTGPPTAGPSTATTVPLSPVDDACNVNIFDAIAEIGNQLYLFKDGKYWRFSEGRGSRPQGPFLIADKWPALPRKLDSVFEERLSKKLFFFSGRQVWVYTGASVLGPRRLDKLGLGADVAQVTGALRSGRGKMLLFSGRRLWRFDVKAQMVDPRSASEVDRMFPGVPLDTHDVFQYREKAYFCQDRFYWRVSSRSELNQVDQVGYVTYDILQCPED
T1 sequence (P78536 215-824): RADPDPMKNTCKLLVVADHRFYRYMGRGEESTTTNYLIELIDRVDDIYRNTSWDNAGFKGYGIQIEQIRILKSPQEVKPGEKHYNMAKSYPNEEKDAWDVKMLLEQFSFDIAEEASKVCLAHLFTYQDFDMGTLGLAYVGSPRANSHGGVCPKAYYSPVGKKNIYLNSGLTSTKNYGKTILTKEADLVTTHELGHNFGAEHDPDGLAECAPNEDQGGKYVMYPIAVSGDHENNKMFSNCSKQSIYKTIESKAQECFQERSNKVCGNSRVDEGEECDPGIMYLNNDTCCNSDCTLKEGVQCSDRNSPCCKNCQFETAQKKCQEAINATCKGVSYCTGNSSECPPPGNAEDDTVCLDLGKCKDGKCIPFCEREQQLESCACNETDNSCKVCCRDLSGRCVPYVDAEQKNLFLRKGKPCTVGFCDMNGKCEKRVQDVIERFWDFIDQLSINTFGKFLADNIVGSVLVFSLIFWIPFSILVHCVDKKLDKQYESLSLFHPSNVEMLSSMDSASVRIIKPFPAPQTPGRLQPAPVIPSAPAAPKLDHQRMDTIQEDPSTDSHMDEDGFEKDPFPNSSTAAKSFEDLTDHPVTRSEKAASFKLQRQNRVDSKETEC
T5 sequence (P22894 101-467): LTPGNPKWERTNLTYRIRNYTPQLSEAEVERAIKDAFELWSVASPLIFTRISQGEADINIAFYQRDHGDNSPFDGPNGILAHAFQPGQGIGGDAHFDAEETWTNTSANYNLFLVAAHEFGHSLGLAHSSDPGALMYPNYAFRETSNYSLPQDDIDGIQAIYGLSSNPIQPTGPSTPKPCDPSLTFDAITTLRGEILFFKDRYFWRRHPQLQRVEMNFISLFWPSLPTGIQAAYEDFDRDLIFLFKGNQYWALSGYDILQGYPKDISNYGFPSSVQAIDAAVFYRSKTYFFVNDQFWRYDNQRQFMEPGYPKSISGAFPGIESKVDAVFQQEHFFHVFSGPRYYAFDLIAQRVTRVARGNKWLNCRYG

Consider `Cc1cc(COc2ccc(S(=O)(=O)CC(C=C3CCN(C(=O)OC(C)(C)C)CC3)N(O)C=O)cc2)c2ccccc2n1` (stereo not drawn) [Example I-18], for which the IC50 in assay [1] was found to be 0.004 µM; in assay [2], 65 µM; in assay [3] it was 3.3 µM; in assay [4] it was 0.65 µM; in assay [5], 24.5 µM; in assay [6], 10 µM. For the same molecule, the IC50 in [7] is 3.5 µM; in assay [8], 20 µM; in assay [9], 0.6 µM.
With `Cc1cc(COc2ccc(S(=O)(=O)CC(C=C3CCN(C(=O)c4ccccc4)CC3)N(O)C=O)cc2)c2ccccc2n1` (stereo not drawn) [Example I-21], the IC50 in assay [1] turned out to be 0.0022 µM; in [2], 35 µM; in assay [3], 0.63 µM; in assay [4], 0.05 µM; in assay [5], 2.65 µM; in assay [6], 9 µM. Besides, the IC50 amounted to 0.6 µM in [7], 3.8 µM in [8] and 0.045 µM in assay [9].
Regarding `Cc1cccc(C(CS(=O)(=O)c2ccc(OCc3cc(C)nc4ccccc34)cc2)N(O)C=O)c1` (stereo not drawn) [Example I-22], the IC50 in [1] worked out at 0.0042 µM; in [2], 60 µM; in [3], 40 µM; in assay [4] it was 7.3 µM; in [5], 59.5 µM; in assay [6], 53 µM. The figures for the IC50 in assay [7], in assay [8] and in assay [9] were 21 µM, 42 µM and 3.5 µM, respectively.
Turning to `Cc1cc(COc2ccc(S(=O)(=O)CC(C=C3CCN(C(=O)C(C)(C)C)CC3)N(O)C=O)cc2)c2ccccc2n1` (stereo not drawn) [Example I-25, N-{1-[1-(2,2-Dimethylpropionyl)piperidin-4-ylidenemethyl]-2-[4-(2-methylquinolin-4-ylmethoxy)benzenesulfonyl]ethyl}-N-hyroxyformamide], the IC50 in [1] was found to be 0.01 µM; in assay [2], 40 µM; in [3] it was 1.3 µM; in assay [4], 0.11 µM; in assay [5] it was 5 µM; in [6], 8 µM. Also, the IC50 in [7] came to 0.7 µM; in [8], 20 µM; in [9], 0.12 µM.
Regarding `Cc1cc(COc2ccc(S(=O)(=O)CC(C3CCC4(CC3)OCCO4)N(O)C=O)cc2)c2ccccc2n1` (stereo not drawn) [Example I-28, N-{1-(1,4-dioxaspiro[4.5]dec-8-yl)-2-[4-(2-methylquinolin-4-ylmethoxy)benzenesulfonyl]ethyl}-N-hydroxyformamide], the IC50 in assay [1] (setting [10]) is 0.015 µM; in assay [2], 65 µM; in [3], 7 µM; in assay [4], 0.28 µM; in assay [5], 9 µM; in [6] (setting [10]) it was 40 µM. Moreover, the figures for the IC50 in [7], in assay [8] and in assay [9] were 3.3 µM, 30 µM and 0.22 µM, respectively.
Turning to `Cc1cc(COc2ccc(S(=O)(=O)CC(CC3CCOCC3)N(O)C=O)cc2)c2ccccc2n1` (stereo not drawn) [Example I-29], the IC50 in [1] was 0.0076 µM; in assay [2] it was over 100 µM; in [3] it was 19 µM; in assay [4] it was 1.8 µM; in assay [5] it was 19 µM; in assay [6], over 100 µM. Further, the IC50 in [7] came out at 18 µM; in [8], 90 µM; in assay [9], 0.96 µM.
As to `CCN1CCC(=CC(CS(=O)(=O)c2ccc(OCc3cc(C)nc4ccccc34)cc2)N(O)C=O)CC1` (stereo not drawn) [Example I-30], the IC50 is 0.012 µM in assay [1]; over 100 µM in assay [2]; 83 µM in assay [3]; 24 µM in [4]; over 100 µM in assay [5]; over 100 µM in assay [6]. In addition, the IC50 in assay [7] is over 100 µM; in assay [8] it was over 100 µM; in assay [9], 8 µM.
Turning to `Cc1cncc(C(CS(=O)(=O)c2ccc(OCc3cc(C)nc4ccccc34)cc2)N(O)C=O)c1` (stereo not drawn) [Example I-31], the IC50 is 0.0028 µM in [1]; over 100 µM in [2]; 50 µM in [3]; 3.2 µM in [4]; 62 µM in [5]; over 100 µM in assay [6]. The IC50 in [7] stood at 26 µM; in assay [8], 90 µM; in assay [9], 1.8 µM.
`Cc1ccc(C(CS(=O)(=O)c2ccc(OCc3cc(C)nc4ccccc34)cc2)N(O)C=O)cn1` (stereo not drawn) [Example I-32]: the IC50 in assay [1] is 0.0025 µM; in assay [2], over 100 µM; in assay [3], 18 µM; in [4], 2.7 µM; in assay [5], 22 µM; in [6], 44 µM. Also, the results for the IC50 in [7], in assay [8] and in assay [9] were 9 µM, 53 µM and 1.5 µM, respectively.
As for `COc1ccc(CCC(CS(=O)(=O)c2ccc(OCc3cc(C)nc4ccccc34)cc2)N(O)C=O)cc1` (stereo not drawn) [Example I-35], the IC50 worked out at 0.032 µM in assay [1]; 50 µM in assay [2]; 4.2 µM in assay [3]; 10 µM in assay [4]; 35 µM in assay [5]; 37 µM in [6]. Moreover, the results for the IC50 in assay [7], in assay [8] and in assay [9] were 7.8 µM, 38 µM and 6 µM, respectively.
For the molecule `Cc1ccc(CCC(CS(=O)(=O)c2ccc(OCc3cc(C)nc4ccccc34)cc2)N(O)C=O)cc1` (stereo not drawn) [Example I-36], the IC50 in [1] was determined as 0.17 µM; in assay [2], 70 µM; in assay [3], 6 µM; in [4] it was 9.7 µM; in assay [5] it was 68 µM; in [6], 43 µM. Moreover, the IC50 in assay [7] was 20 µM; in assay [8], 37 µM; in assay [9], 20 µM.
In the case of `Cc1ccc(CCCC(CS(=O)(=O)c2ccc(OCc3cc(C)nc4ccccc34)cc2)N(O)C=O)cc1` (stereo not drawn) [Example I-37], the IC50 is 0.17 µM in [1]; 57 µM in assay [2]; 2.7 µM in [3]; 2 µM in assay [4]; 25 µM in assay [5]; 22 µM in assay [6]. Also, the results for the IC50 in assay [7], in [8] and in assay [9] were 6 µM, 33 µM and 1.1 µM, respectively.

The IC50 is the concentration at which inhibition is half-maximal.

The values above are taken from patent publication US7511144B2, “Reverse hydroxamic acid derivatives” (Kaken Pharmaceutical Co., Ltd., priority 2001, dated 2009).
